Like-named read-outs stand apart in the source and are kept apart here.
Tests used:
[1] = target: T1, Recombinant STAT3 protein (STAT3 (G127-I722)) (Homo sapiens, UniProt P40763); assay: STAT3 Fluorescence Polarization (FP) Assay; format: binding; conditions: probe 5-FAM-GpYLPQTV-NH2 2 nM, 45-minute incubation
T1 construct: Recombinant STAT3 protein (STAT3 (G127-I722))
Outline: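 Displacement of a 2 nM 5-FAM-labelled pY peptide (GpYLPQTV) from 25 nM recombinant STAT3 (G127-I722) was monitored by fluorescence polarization. Incubation lasted 45 min at room temperature in pH 7.4 HEPES buffer containing 1% DMSO.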

[2] = target: T2, Recombinant STAT6 protein (STAT6 (W123-T658)) (Homo sapiens, UniProt P42226); assay: STAT6 Fluorescence Polarization (FP) Assay; format: binding; conditions: 45-minute incubation
T2 construct: Recombinant STAT6 protein (STAT6 (W123-T658))
T2 sequence (P42226 123-658): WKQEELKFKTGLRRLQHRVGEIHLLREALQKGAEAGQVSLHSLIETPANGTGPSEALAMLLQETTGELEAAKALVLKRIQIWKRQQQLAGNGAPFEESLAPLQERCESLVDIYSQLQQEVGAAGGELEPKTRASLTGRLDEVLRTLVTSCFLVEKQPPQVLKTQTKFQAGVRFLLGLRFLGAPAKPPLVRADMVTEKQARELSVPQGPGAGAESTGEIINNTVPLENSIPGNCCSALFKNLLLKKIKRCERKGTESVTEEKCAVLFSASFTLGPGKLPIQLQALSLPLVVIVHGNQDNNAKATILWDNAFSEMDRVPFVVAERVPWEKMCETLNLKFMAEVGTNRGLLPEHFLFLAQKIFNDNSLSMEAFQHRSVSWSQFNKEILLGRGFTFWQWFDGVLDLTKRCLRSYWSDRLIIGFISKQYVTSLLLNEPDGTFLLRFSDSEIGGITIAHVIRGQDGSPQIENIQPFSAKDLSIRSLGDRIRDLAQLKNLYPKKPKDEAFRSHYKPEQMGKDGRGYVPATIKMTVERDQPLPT
Outline: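 Recombinant STAT6 (W123-T658) at 250 nM mixed with 2 nM 5-FAM phosphotyrosine peptide probe in HEPES pH 7.4 buffer with DTT, 1% DMSO final, added to serially diluted compounds. FP (mP) read after 45 min at room temperature; IC50 by nonlinear regression vs log concentration.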

[3] = STAT3 (G127-I722) 25 nM, read-out: STAT3 (FP assay IC50 class)
[4] = STAT6 (W123-T658) 250 nM, probe 5-FAM-Ap[…]-NH2 2 nM, read-out: STAT6 (FP assay IC50 class)
[5] = STAT3 25 nM, read-out: STAT3 (FP assay IC50)
[6] = STAT6 250 nM, probe 5-FAM-Ap[…]-NH2 2 nM, read-out: STAT6 (FP assay IC50)

T1 sequence (P40763 127-722): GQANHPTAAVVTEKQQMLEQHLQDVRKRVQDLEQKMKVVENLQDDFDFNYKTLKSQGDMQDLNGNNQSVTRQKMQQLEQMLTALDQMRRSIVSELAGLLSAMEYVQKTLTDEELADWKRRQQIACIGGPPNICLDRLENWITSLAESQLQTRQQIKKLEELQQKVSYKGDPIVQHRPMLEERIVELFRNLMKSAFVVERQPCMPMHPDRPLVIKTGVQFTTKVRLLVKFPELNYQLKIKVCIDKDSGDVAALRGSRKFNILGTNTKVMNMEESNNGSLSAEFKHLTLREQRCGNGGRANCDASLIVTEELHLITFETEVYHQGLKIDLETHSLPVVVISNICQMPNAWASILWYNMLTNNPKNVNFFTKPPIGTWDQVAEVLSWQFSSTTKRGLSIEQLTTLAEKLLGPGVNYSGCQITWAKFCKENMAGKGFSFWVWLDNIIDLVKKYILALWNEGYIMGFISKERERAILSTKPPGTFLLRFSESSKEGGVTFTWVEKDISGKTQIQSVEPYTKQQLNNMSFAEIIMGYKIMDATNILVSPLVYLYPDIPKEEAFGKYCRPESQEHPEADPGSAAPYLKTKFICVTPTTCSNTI

Compound | IC50 [1, 3] [µM] | IC50 [2, 4] [µM] | IC50 [1, 5] [µM] | further results
Cn1cccc(C2CN(C(=O)[C@@H]3CC[C@@H]4CCC[C@H](NC(=O)c5cc6cc(C(F)P(=O)(O)O)ccc6s5)C(=O)N43)C2)c1=O (stereo partly drawn) [Compound 628, (fluoro(2-(((3S,6S,9aS)-3-(3-(1-methyl-2-oxo-1,2-dihydropyridin-3-yl)azetidine-1-carbonyl)-5-oxooctahydro-1H-pyrrolo[1,2-a]azepin-6-yl)carbamoyl)benzo [b]thiophen-5-yl)methyl) phosphonic acid] | < 0.1 | 3 to 30 | – | –
N#C[C@@H]1CN(C(=O)[C@@H]2CC[C@@H]3CCCC[C@H](NC(=O)c4cc5cc(C(F)(F)P(=O)(O)O)ccc5s4)C(=O)N32)C[C@H]1c1cccc(=O)[nH]1 (relative stereo) [Compound 867, ((2-(((3S,6S,10aS)-3-((rel-trans)-3-cyano-4-(6-oxo-1,6-dihydropyridin-2-yl)pyrrolidine-1-carbonyl)-5-oxodecahydropyrrolo [1,2-a]azocin-6-yl)carbamoyl)benzo [b]thiophen-5-yl)difluoromethyl) phosphonic acid] | 0.1 to 1 | – | – | IC50 ([2]; STAT6 (W123-T658) 250 nM, probe 5-FAM-ApYKPFQDLI-NH2 2 nM, read-out: STAT6 (FP assay IC50 class)): ≤ 0.3 µM
O=C(N[C@H]1CCCC[C@H]2CC[C@@H](C(=O)Nc3ccc4c(c3)CCCS4(=O)=O)N2C1=O)c1cc2cc(C(F)(F)P(=O)(O)O)ccc2s1 [Compound 58, ((2-(((3S,6S,10aS)-3-((1,1-dioxidothio-chroman-6-yl)carbamoyl)-5-oxodecahydropyrrolo [1,2-a]azocin-6-yl)carbamoyl)benzo[b]thiophen-5-yl)difluoro-methyl)phosphonic acid] | – | – | 0.1 to 1 | IC50 [2, 6]: 0.3 to 3 µM
N#C[C@@H]1CN(C(=O)[C@@H]2CC[C@@H]3CCCC[C@H](NC(=O)c4ccc5ccc(C(F)(F)P(=O)(O)O)cc5c4)C(=O)N32)C[C@H]1c1cc[nH]c(=O)c1 (single isomer, unassigned) [Compound 79, ((7-(((3S,6S,10aS)-3-((3S,4R or 3R,4S)-3-cyano-4-(2-oxo-1,2-dihydropyridin-4-yl)pyrrolidine-1-carbonyl)-5-oxodecahydropyrrolo [1,2-a]azocin-6-yl)carbamoyl)naphthalen-2-yl)difluoromethyl) phosphonic acid] | – | – | 0.1 to 1 | IC50 ([2]; STAT6 250 nM, probe 5-FAM-ApYKPFQDLI-NH2 2 nM, read-out: STAT6 (FP assay IC50)): ≤ 0.3 µM
COc1ccncc1C1CN(C(=O)[C@@H]2CC[C@@H]3C[C@@H](C(C)C)CC[C@H](NC(=O)c4cc5cc(C(F)P(=O)(O)O)ccc5s4)C(=O)N32)C1 (stereo partly drawn) [Compound 246, (fluoro(2-(((3S,6S,9S,10aR)-9-isopropyl-3-(3-(4-methoxypyridin-3-yl)azetidine-1-carbonyl)-5-oxodecahydropyrrolo[1,2-a]azocin-6-yl)carbamoyl)benzo[b]thiophen-5-yl)methyl)phosphonic acid] | < 0.1 | 3 to 30 | – | –
N#C[C@H]1[C@H](c2ccccc2)CN(C(=O)[C@@H]2CC[C@@H]3CCCC[C@H](NC(=O)c4cc5cc([C@H](F)P(=O)(O)O)ccc5s4)C(=O)N32)C12CC2 (single isomer, unassigned) [Compound 924] | 1 to 10 | ≤ 0.3 | – | –
N#C[C@@H]1CN(C(=O)[C@@H]2C[C@@H](O)[C@@H]3CCCCC[C@H](NC(=O)c4cc5cc(C(F)(F)P(=O)(O)O)ccc5s4)C(=O)N23)C[C@H]1c1ccccc1 (relative stereo) [Compound 76, ((2-(((1R,3S,6S, 11aS)-3-(rel-(trans)-3-cyano-4-phenylpyrrolidine-1-carbonyl)-1-hydroxy-5-oxodecahydro-1H-pyrrolo[1,2-a]azonin-6-yl)carbamoyl)benzo[b]thiophen-5-yl)difluoromethyl) phosphonic acid] | – | – | 1 to 10 | IC50 [2, 6]: ≤ 0.3 µM
O=C(N[C@H]1CCC[C@H]2CC[C@@H](C(=O)N3CC(c4cscc4F)C3)N2C1=O)c1cc2cc(C(F)P(=O)(O)O)ccc2s1 (stereo partly drawn) [Compound 757, (fluoro(2-(((3S,6S,9aS)-3-(3-(4-fluorothiophen-3-yl)azetidine-1-carbonyl)-5-oxooctahydro-1H-pyrrolo[1,2-a]azepin-6-yl)carbamoyl)benzo [b]thiophen-5-yl)methyl) phosphonic acid] | 0.1 to 1 | 3 to 30 | – | –
CC(O)C1(c2ccccc2)CN(C(=O)[C@@H]2CC[C@@H]3CCCC[C@H](NC(=O)c4cc5cc(C(F)(F)P(=O)(O)O)ccc5s4)C(=O)N32)C1 (stereo partly drawn) [Compound 495, (difluoro(2-(((3S,6S,10aS)-3-(3-(1-hydroxyethyl)-3-phenylazetidine-1-carbonyl)-5-oxodecahydropyrrolo[1,2-a]azocin-6-yl)carbamoyl)benzo[b]thiophen-5-yl)methyl)phosphonic acid] | 0.1 to 1 | 3 to 30 | – | –
O=C(N[C@H]1CCC[C@H]2CC[C@@H](C(=O)N3CC(c4cnccc4OC(F)F)C3)N2C1=O)c1cc2cc(CP(=O)(O)O)ccc2s1 [Compound 632, ((2-(((3S,6S,9aS)-3-(3-(4-(difluoromethoxy)pyridin-3-yl)azetidine-1-carbonyl)-5-oxooctahydro-1H-pyrrolo[1,2-a]azepin-6-yl)carbamoyl)benzo [b]thiophen-5-yl)methyl) phosphonic acid] | 1 to 10 | 3 to 30 | – | –
CC(NC(=O)[C@@H]1CC[C@@H]2CCCC[C@H](NC(=O)c3cc4cc(C(F)(F)P(=O)(O)O)ccc4s3)C(=O)N21)c1c[nH]c2ncccc12 (stereo partly drawn) [Compound 1113, ((2-(((3S,6S,10aS)-3-((1-(1H-pyrrolo[2,3-b]pyridin-3-yl)ethyl)carbamoyl)-5-oxodecahydropyrrolo[1,2-a]azocin-6-yl)carbamoyl)benzo[b]thiophen-5-yl)difluoromethyl)phosphonic acid] | 0.1 to 1 | 0.3 to 3 | – | –
O=C(N[C@H]1CCCC[C@H]2CC[C@@H](C(=O)N3Cc4cccnc4C3)N2C1=O)c1cc2cc(C(F)(F)P(=O)(O)O)ccc2s1 [Compound 801, ((2-(((3S,6S,10aS)-3-(6,7-dihydro-5H-pyrrolo[3,4-b]pyridine-6-carbonyl)-5-oxodecahydropyrrolo [1,2-a]azocin-6-yl)carbamoyl)benzo [b]thiophen-5-yl)difluoromethyl) phosphonic acid] | 0.1 to 1 | 3 to 30 | – | –
C[C@]1(NC(=O)c2cc3cc(C(F)(F)P(=O)(O)O)ccc3s2)CCCC[C@H]2CC[C@@H](C(=O)N3CC(c4ccccn4)C3)N2C1=O [Compound 85, (difluoro(2-(((3S,6S,10aS)-6-methyl-5-oxo-3-(3-(pyridin-2-yl)azetidine-1-carbonyl)decahydropyrrolo [1,2-a]azocin-6-yl)carbamoyl)benzo[b]thiophen-5-yl)methyl) phosphonic acid] | – | – | < 0.1 | IC50 [2, 6]: 3 to 30 µM
CCc1ccncc1C1CN(C(=O)[C@@H]2CC[C@@H]3CCC[C@H](NC(=O)c4ccc5sc(CP(=O)(O)O)cc5c4)C(=O)N32)C1 [Compound 576, ((5-(((3S,6S,9aS)-3-(3-(4-ethylpyridin-3-yl)azetidine-1-carbonyl)-5-oxooctahydro-1H-pyrrolo[1,2-a]azepin-6-yl)carbamoyl)benzo[b]thiophen-2-yl)methyl)phosphonic acid] | 0.1 to 1 | 3 to 30 | – | –
O=C(N[C@H]1CCCC[C@H]2CC[C@@H](C(=O)N3CC(c4cccnc4)C3)N2C1=O)c1cc2cc(C(F)(F)P(=O)(O)O)ccc2s1 [Compound 117, (difluoro(2-(((3S,6S,10aS)-5-oxo-3-(3-(pyridin-3-yl)azetidine-1-carbonyl)decahydropyrrolo [1,2-a]azocin-6-yl)carbamoyl)benzo[b]thiophen-5-yl)methyl) phosphonic acid] | – | – | < 0.1 | IC50 [2, 6]: 3 to 30 µM

From US20250215029A1 (Recludix Pharma, Inc., priority 2022, published 2025)
